{"source": "patent US10752588B2", "about": "(The Broad Institute, Inc., priority 2014, dated 2020)", "key": {"human D2R/β-arrestin [1]": {"target": "T1, human D2R/β-arrestin (Homo sapiens (Human), UniProt P14416)", "T1 sequence (P14416 whole entry)": "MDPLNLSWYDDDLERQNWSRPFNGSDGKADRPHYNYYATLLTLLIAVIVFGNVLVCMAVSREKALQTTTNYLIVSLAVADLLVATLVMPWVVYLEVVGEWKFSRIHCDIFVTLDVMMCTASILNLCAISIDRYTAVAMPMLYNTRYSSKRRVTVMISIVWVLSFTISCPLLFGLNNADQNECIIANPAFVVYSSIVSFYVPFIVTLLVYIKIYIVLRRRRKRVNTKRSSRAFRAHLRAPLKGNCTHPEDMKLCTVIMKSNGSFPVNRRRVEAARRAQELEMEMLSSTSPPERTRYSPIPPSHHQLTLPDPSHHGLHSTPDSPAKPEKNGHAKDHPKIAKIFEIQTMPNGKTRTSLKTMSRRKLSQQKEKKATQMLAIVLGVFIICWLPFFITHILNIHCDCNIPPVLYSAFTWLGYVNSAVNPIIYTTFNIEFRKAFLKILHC", "assay": "β-Arrestin agonist assay (PathHunter)", "format": "cell-based", "conditions": "CHO-K1 cell line expressing human D2R/β-arrestin", "procedure,_shortened": "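After compound incubation, detection reagent (Buffer:Emerald II:Galactor-Star, 19:5:1) added and luminescence or fluorescence read.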"}, "Plasma stability, human": {"assay": "Plasma stability, human", "format": "in vitro ADME"}, "Solubility in PBS": {"assay": "Solubility in PBS", "format": "physicochemical", "conditions": "aqueous buffer"}, "plasma protein [2]": {"test_system": "plasma protein", "assay": "Plasma protein binding, human", "format": "in vitro ADME", "conditions": "plasma, read-out: Plasma Protein Binding % bound"}, "plasma protein [3]": {"test_system": "plasma protein", "assay": "Plasma protein binding, mouse", "format": "in vitro ADME", "conditions": "plasma, read-out: Plasma Protein Binding % bound"}, "Caco2": {"test_system": "Caco2", "assay": "Caco2 permeability", "format": "in vitro ADME", "parameters": "unit not given beside the values"}, "human D2R/β-arrestin [4]": {"target": "T1, human D2R/β-arrestin", "assay": "cell-based", "conditions": "β-arrestin Antagonist, CHO-K1 cell line expressing human D2R/β-arrestin; quinpirole used as agonist"}, "plasma protein [5]": {"test_system": "plasma protein", "assay": "Plasma protein binding, rat", "format": "in vitro ADME", "conditions": "plasma, read-out: Plasma Protein Binding % bound"}, "[6]": {"assay": "Microsomal stability, rat", "format": "in vitro ADME"}, "[7]": {"assay": "Microsomal stability, mouse"}, "Plasma stability, rat": {"assay": "Plasma stability, rat", "format": "in vitro ADME"}, "human D2R/β-arrestin [8]": {"target": "T1, human D2R/β-arrestin", "assay": "Gi/cAMP agonist assay (Lance Ultra cAMP, Forskolin)", "format": "cell-based", "conditions": "CHO-K1 cell line expressing human D2R/β-arrestin", "procedure,_shortened": "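Cells were plated and incubated before compounds were pin-transferred and incubated for 10 min at 37 °C. Forskolin was then added to stimulate cAMP. cAMP was detected by Lance Ultra TR-FRET using Eu-cAMP tracer and ULight-anti-cAMP antibody.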"}, "human D2R/β-arrestin [9]": {"target": "T1, human D2R/β-arrestin", "assay": "cell-based", "conditions": "cAMP Antagonist, CHO-K1 cell line expressing human D2R/β-arrestin; quinpirole used as agonist"}, "Rotarod performance": {"assay": "Rotarod performance", "format": "in vivo", "conditions": "mice, 10 or 30 mg/kg, compared with clozaril at 3 mg/kg", "experimental": "In the test, test animals are placed on a horizontally oriented, rotating cylinder (rod) suspended above a cage floor. The test animals naturally try to stay on the rotating cylinder, or rotarod, and avoid falling to the ground. Test animals are administered with various compounds (e.g., compounds of the invention or control compounds). The length of time that a given animal stays on this rotating rod is a measure of the animal's balance, coordination, physical condition, and motor-planning. The speed of the rotarod is mechanically driven, and can be held constant.\nIn the test, mice were placed on a horizontally oriented, rotating cylinder (rod) suspended above a cage floor, which was low enough not to injure the animal, but high enough to induce avoidance of fall. The mice naturally try to stay on the rotating cylinder, or rotarod, and avoid falling to the ground."}, "[10]": {"assay": "Microsomal stability, human", "format": "in vitro ADME"}}, "data": [{"smiles": "COc1cccc(C(NC(=O)C2CCN(CCOc3ccccc3)CC2)c2ccccn2)c1", "note": "(centres unmarked) [Compound 35]", "values": [{"measurement": "EC50", "setting": "human D2R/β-arrestin [1]", "result": "> 30", "unit": "µM"}, {"measurement": "Plasma Stability: % remaining after 5 hours", "setting": "Plasma stability, human", "result": 100, "unit": "%"}, {"measurement": "solubility", "setting": "Solubility in PBS", "result": 441, "unit": "µM"}, {"measurement": "fraction unbound", "setting": "plasma protein [2]", "result": 0.086}, {"measurement": "fraction unbound", "setting": "plasma protein [3]", "result": 0.074}, {"measurement": "Caco2 A-B", "setting": "Caco2; A-B direction", "result": 26.7}, {"measurement": "Caco2 B-A", "setting": "Caco2; B-A direction", "result": 46.7}, {"measurement": "IC50", "setting": "human D2R/β-arrestin [4]", "result": "1 to 10", "unit": "µM"}, {"measurement": "fraction unbound", "setting": "plasma protein [5]", "result": 0.042}, {"measurement": "Microsomal Stability: % remaining after 60 minutes", "setting": "[6]", "result": 80, "unit": "%"}, {"measurement": "Plasma Stability: % remaining after 5 hours", "setting": "Plasma stability, mouse", "result": 98, "unit": "%"}, {"measurement": "Microsomal Stability: % remaining after 60 minutes", "setting": "[7]", "result": 74, "unit": "%"}, {"measurement": "Plasma Stability: % remaining after 5 hours", "setting": "Plasma stability, rat", "result": 99.6, "unit": "%"}, {"measurement": "EC50", "setting": "human D2R/β-arrestin [8]", "result": "1 to 10", "unit": "µM"}, {"measurement": "IC50", "setting": "human D2R/β-arrestin [9]", "result": "1 to 10", "unit": "µM"}, {"measurement": "catalepsy in the rotarod test", "setting": "Rotarod performance", "result": "promotes far less catalepsy than the known antipsychotic Clozapine at efficacious doses"}, {"measurement": "Microsomal Stability: % remaining after 60 minutes", "setting": "[10]", "result": 83, "unit": "%"}]}]}
